What follows are compounds tested against T1, GPR6 receptor expressed in CHO-K1 cells (Homo sapiens, UniProt P46095) (assay: In vitro inhibition of cAMP (EC50), cell-based HTRF cAMP assay). Conditions: inhibition of constitutive cAMP activity of GPR6 in CHO-K1 cells.
T1 construct: expressed in transfected cells
Summary of the method: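 Tetracycline-inducible CHO-K1 line, GPR6 expression induced 20 h with 2 μg/mL doxycycline. Compounds incubated 45 min at 37 °C in Ringer's buffer (pH 7.4) with 0.5% fatty acid free BSA and 300 μM IBMX. Constitutive cAMP read by Lance HTRF; EC50 from four-parameter logistic fit.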

T1 sequence (P46095 whole entry): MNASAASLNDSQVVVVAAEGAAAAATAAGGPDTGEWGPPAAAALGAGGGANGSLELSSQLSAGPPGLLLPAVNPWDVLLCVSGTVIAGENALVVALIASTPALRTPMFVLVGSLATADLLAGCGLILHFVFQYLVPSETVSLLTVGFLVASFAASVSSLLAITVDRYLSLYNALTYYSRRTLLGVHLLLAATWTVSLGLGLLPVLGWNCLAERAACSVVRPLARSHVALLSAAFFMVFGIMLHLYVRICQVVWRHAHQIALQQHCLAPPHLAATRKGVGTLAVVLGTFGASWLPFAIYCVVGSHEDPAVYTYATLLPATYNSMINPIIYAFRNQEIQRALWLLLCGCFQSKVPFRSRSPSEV

| pEC50, in vitro inhibition of cAMP | Compound |
| --- | --- |
| 7.1 | COc1cc(C)ccc1C(=O)Nc1cc(C#N)ccc1N1CCC(Oc2ccc(F)cc2F)CC1 [Example 236, N-(5-cyano-2-(4-(2,4-difluorophenoxy)piperidin-1-yl)phenyl)-2-methoxy-4-methylbenzamide] |
| 6.8 | N#Cc1ccc(N2CCC(Oc3ccc(F)cc3F)CC2)c(NC(=O)c2cnc3ccccn3c2=O)c1 [Example 178, N-(5-cyano-2-(4-(2,4-difluorophenoxy)piperidin-1-yl)phenyl)-4-oxo-4H-pyrido[1,2-a]pyrimidine-3-carboxamide] |
| 6.5 | COc1ncccc1C(=O)Nc1cc(C#N)ccc1N1CCN(Cc2c(F)cccc2Cl)CC1 [Example 71] |
| 6.7 | COc1c(Cl)cccc1C(=O)Nc1cc(C#N)ccc1N1CCC(Oc2ccc(F)cc2F)CC1 [Example 222, 3-chloro-N-(5-cyano-2-(4-(2,4-difluorophenoxy)piperidin-1-yl)phenyl)-2-methoxybenzamide] |
| 6.4 | Cc1sc2ncc(C(=O)Nc3cc(C#N)ccc3N3CCC(Oc4ccc(F)cc4F)CC3)c(=O)n2c1C [Example 198, N-(5-cyano-2-(4-(2,4-difluorophenoxy)piperidin-1-yl)phenyl)-2,3-dimethyl-5-oxo-5H-thiazolo[3,2-a]pyrimidine-6-carboxamide] |
| 6.6 | Cc1ccc(C(=O)Nc2cc(C#N)ccc2N2CCC(Oc3ccc(F)cc3F)CC2)nn1 [Example 146, N-(5-cyano-2-(4-(2,4-difluorophenoxy)piperidin-1-yl)phenyl)-6-methylpyridazine-3-carboxamide] |
| 6.4 | CC(C)n1cccc(C(=O)Nc2cc(C#N)ccc2N2CCC(Oc3ccc(F)cc3F)CC2)c1=O [Example 181, N-(5-cyano-2-(4-(2,4-difluorophenoxy)piperidin-1-yl)phenyl)-1-isopropyl-2-oxo-1,2-dihydropyridine-3-carboxamide] |
| 6.1 | Cc1cnc(C(=O)Nc2cc(C#N)ccc2N2CCC(Oc3ccc(F)cc3F)CC2)c(C)n1 [Example 114, N-(5-cyano-2-(4-(2,4-difluorophenoxy)piperidin-1-yl)phenyl)-3,5-dimethylpyrazine-2-carboxamide] |
| 6.7 | N#Cc1ccc(N2CCC(Oc3ccc(F)cc3F)CC2)c(NC(=O)c2cc(C3CC3)on2)c1 [Example 125, N-(5-cyano-2-(4-(2,4-difluorophenoxy)piperidin-1-yl)phenyl)-5-cyclopropylisoxazole-3-carboxamide] |
| 6.3 | COc1cc(C(F)(F)F)ccc1C(=O)Nc1cc(C#N)ccc1N1CCC(Oc2ccc(F)cc2F)CC1 [Example 194, N-(5-cyano-2-(4-(2,4-difluorophenoxy)piperidin-1-yl)phenyl)-2-methoxy-4-(trifluoromethyl)benzamide] |
| 5.8 | N#Cc1ccc(N2CCC(Oc3ccc(F)cc3F)CC2)c(NC(=O)c2cnsn2)c1 [Example 134, N-(5-cyano-2-(4-(2,4-difluorophenoxy)piperidin-1-yl)phenyl)-1,2,5-thiadiazole-3-carboxamide] |
| 6.4 | COc1cc(C(C)(C)C)ccc1C(=O)Nc1cc(C#N)ccc1N1CCC(Oc2ccc(F)cc2F)CC1 [Example 216, 4-(tert-butyl)-N-(5-cyano-2-(4-(2,4-difluorophenoxy)piperidin-1-yl)phenyl)-2-methoxybenzamide] |
| 6.3 | N#Cc1ccc(N2CCC(Oc3ccc(F)cc3F)CC2)c(NC(=O)c2cnn3c2OCCC3)c1 [Example 53, N-(5-cyano-2-(4-(2,4-difluorophenoxy)piperidin-1-yl)phenyl)-6,7-dihydro-5H-pyrazolo[5,1-b][1,3]oxazine-3-carboxamide] |
| 6.5 | N#Cc1ccc(N2CCC(Oc3ccc(F)cc3F)CC2)c(NC(=O)c2cccn(C(F)F)c2=O)c1 [Example 277, N-(5-cyano-2-(4-(2,4-difluorophenoxy)piperidin-1-yl)phenyl)-1-(difluoromethyl)-2-oxo-1,2-dihydropyridine-3-carboxamide] |
| 7.4 | Cc1cccc(C(=O)Nc2cc(C#N)cnc2N2CCC(Oc3ccc(F)cc3F)CC2)n1 [Example 54, N-(5-cyano-2-(4-(2,4-difluorophenoxy)piperidin-1-yl)pyridin-3-yl)-6-methylpicolinamide] |
| 6.8 | Cc1ccc2ncc(C(=O)Nc3cc(C#N)ccc3N3CCC(Oc4ccc(F)cc4F)CC3)c(=O)n2c1 [Example 201] |

Continued, compound first:

| Compound | pEC50, in vitro inhibition of cAMP |
| --- | --- |
| COc1cc(CN2CCN(c3ncc(C#N)cc3NC(=O)c3cn(C)nc3OC)CC2)ccc1F [Example 158, N-(5-cyano-2-(4-(4-fluoro-3-methoxybenzyl)piperazin-1-yl)pyridin-3-yl)-3-methoxy-1-methyl-1H-pyrazole-4-carboxamide] | 6.3 |
| [2H]C([2H])([2H])N(C(=O)c1cc(N2CCC(Oc3ccc(F)cc3F)CC2)c(NC(=O)c2cccnc2OC)cn1)C([2H])([2H])[2H] [Example 22, 4-(4-(2,4-difluorophenoxy)piperidin-1-yl)-5-(2-methoxynicotinamido)-N,N-bis(methyl-d3)picolinamide] | 7.1 |
| COc1ncccc1C(=O)Nc1cc(S(C)(=O)=O)ccc1N1CCN(C(=O)c2ccc(F)cc2C)CC1 [Example 95, N-(2-(4-(4-fluoro-2-methylbenzoyl)piperazin-1-yl)-5-(methylsulfonyl)phenyl)-2-methoxynicotinamide] | 6.2 |
| COc1nc(C)ccc1C(=O)Nc1cnc(C)nc1N1CCC(Oc2ccc(F)cc2F)CC1 [Example 74, N-(4-(4-(2,4-difluorophenoxy)piperidin-1-yl)-2-methylpyrimidin-5-yl)-2-methoxy-6-methylnicotinamide] | 7.1 |
| COc1ncccc1C(=O)Nc1cc(C#N)ccc1N1CCN(Cc2c(F)cccc2F)CC1 [Example 249] | 6.4 |
| COc1ncccc1C(=O)Nc1cc(C(=O)N(C)C)cnc1N1CCC(Oc2ccc(F)cc2F)CC1 [Example 148, 6-(4-(2,4-difluorophenoxy)piperidin-1-yl)-5-(2-methoxynicotinamido)-N,N-dimethylnicotinamide] | 7.2 |
| COc1ncccc1C(=O)Nc1cc(C#N)ccc1N1CCN(Cc2cccc(C#N)c2)CC1 [Example 248, N-(5-cyano-2-(4-(3-cyanobenzyl)piperazin-1-yl)phenyl)-2-methoxynicotinamide] | 6.9 |
| COc1ccc(F)c(CN2CCN(c3ccc(C#N)cc3NC(=O)c3cccnc3OC)CC2)c1 [Example 242, N-(5-cyano-2-(4-(2-fluoro-5-methoxybenzyl)piperazin-1-yl)phenyl)-2-methoxynicotinamide] | 6.8 |
| COc1cc(F)c(F)cc1CN1CCN(c2ncc(C#N)cc2NC(=O)c2cn(C)nc2OC)CC1 [Example 170, N-(5-cyano-2-(4-(4,5-difluoro-2-methoxybenzyl)piperazin-1-yl)pyridin-3-yl)-3-methoxy-1-methyl-1H-pyrazole-4-carboxamide] | 6.5 |
| COc1nn(C)cc1C(=O)Nc1cc(C#N)cnc1N1CCN(Cc2ccc(OC(F)(F)F)cc2)CC1 [Example 166, N-(5-cyano-2-(4-(4-(trifluoromethoxy)benzyl)piperazin-1-yl)pyridin-3-yl)-3-methoxy-1-methyl-1H-pyrazole-4-carboxamide] | 6.1 |
| COc1ccc(C(=O)N2CCN(c3ccc(C#N)cc3NC(=O)c3cccnc3OC)CC2)c(F)c1 [Example 284, N-(5-cyano-2-(4-(2-fluoro-4-methoxybenzoyl)piperazin-1-yl)phenyl)-2-methoxynicotinamide] | 6.6 |
| COc1ccc(CN2CCN(c3ncc(C#N)cc3NC(=O)c3cn(C)nc3OC)CC2)cc1F [Example 168, N-(5-cyano-2-(4-(3-fluoro-4-methoxybenzyl)piperazin-1-yl)pyridin-3-yl)-3-methoxy-1-methyl-1H-pyrazole-4-carboxamide] | 6.4 |
| COc1ncccc1C(=O)Nc1cnc(C(=O)N(C)C)nc1N1CCC(Oc2ccc(F)cc2F)CC1 [Example 281, 4-(4-(2,4-difluorophenoxy)piperidin-1-yl)-5-(2-methoxynicotinamido)-N,N-dimethylpyrimidine-2-carboxamide] | 6.4 |
| COc1ncccc1C(=O)Nc1cc(C#N)ccc1N1CCC(C(=O)c2ccccc2)CC1 [Example 70, N-(2-(4-benzoylpiperidin-1-yl)-5-cyanophenyl)-2-methoxynicotinamide] | 6.4 |
| CCCCn1cccc(C(=O)Nc2cc(C#N)ccc2N2CCC(Oc3ccc(F)cc3F)CC2)c1=O [Example 179, 1-butyl-N-(5-cyano-2-(4-(2,4-difluorophenoxy)piperidin-1-yl)phenyl)-2-oxo-1,2-dihydropyridine-3-carboxamide] | 6.2 |
| COc1ncccc1C(=O)Nc1cc(C#N)ccc1N1CCN(Cc2cccs2)CC1 [Example 72, N-(5-cyano-2-(4-(thiophen-2-ylmethyl)piperazin-1-yl)phenyl)-2-methoxynicotinamide] | 6.6 |
| Cn1ncc2ccc(NC(=O)c3ccccn3)c(N3CCC(Oc4ccc(F)cc4F)CC3)c21 [Example 77, N-(7-(4-(2,4-difluorophenoxy)piperidin-1-yl)-1-methyl-1H-indazol-6-yl)picolinamide] | <5.7 |
| Cn1cccc(C(=O)Nc2cc(C#N)ccc2N2CCC(C(F)(F)c3cc(Cl)ccc3F)CC2)c1=O [Example 89, N-(2-(4-((5-chloro-2-fluorophenyl)difluoromethyl)piperidin-1-yl)-5-cyanophenyl)-1-methyl-2-oxo-1,2-dihydropyridine-3-carboxamide] | 6.3 |
